The values below come from US20230348376A1 (TEIJIN PHARMA LIMITED, priority 2020, published 2023).

Molecules are shown by their SMILES. Where two headings read alike, the source gives them in different places.

Series [1] in a line: Evaluation of brain penetration in mice (blood and brain concentration at brain Cmax). Type of series: in vivo, mouse. To be noted: 1 mg/kg single oral dose, C57BL/6J mice; for Concentration in blood (mean ± SD) at brain Cmax / Concentration in brain (mean ± SD) at brain Cmax: n=3; for Kp: male, C57BL/6J, mouse, brain/plasma, po, 1 mg/kg, read-out: Concentration in brain/in blood ratio at brain Cmax. As for the experimental part: The administration solution was administered orally to C57BL/6J mice (8 weeks old, male, n=3) at a single dose (1 mg/kg). Mice were euthanized at 6 points of 0.25, 0.5, 1, 2, 4, and 8 hours after administration, and plasma and brain sampling were performed. After preparing a homogenate from the collected brain using Tissue Lyser II (QIAGEN #85300), acetonitrile was added to the homogenate and the homogenate was centrifuged (12000 rpm, 5 minutes) to extract the administered test compound contained in the brain. Similarly, the plasma was subjected to addition of acetonitrile and centrifugal separation to extract the administered test compound contained in the plasma. Each extracted sample was subjected to measurement of the concentration of administered test compound using LC/MS/MS (SHIMADZU UFLC/MS/MS (8050)).
Test 2 [0.2 mg/kg Administration Study] […] The administration solution was administered orally to C57BL/6J mice (8 weeks old, male, n=3) at a single dose (0.2 mg/kg). Mice were euthanized at 6 points of 0.25, 0.5, 1, 2, 4, and 8 hours after administration, and plasma and brain sampling were performed. After preparing a homogenate from the collected brain using Tissue Lyser II (QIAGEN #85300), acetonitrile was added to the homogenate and the homogenate was centrifuged (12000 rpm, 5 minutes) to extract the administered compound contained in the brain. Similarly, the plasma was subjected to addition of acetonitrile and centrifugal separation to extract the administered test compound contained in the plasma. Each extracted sample was subjected to measurement of the concentration of administered test compound using LC/MS/MS (SHIMADZU UFLC/MS/MS (8050)).

The target of another series is T1, human VDR (Homo sapiens, UniProt P11473).
T1 sequence (P11473 1-427): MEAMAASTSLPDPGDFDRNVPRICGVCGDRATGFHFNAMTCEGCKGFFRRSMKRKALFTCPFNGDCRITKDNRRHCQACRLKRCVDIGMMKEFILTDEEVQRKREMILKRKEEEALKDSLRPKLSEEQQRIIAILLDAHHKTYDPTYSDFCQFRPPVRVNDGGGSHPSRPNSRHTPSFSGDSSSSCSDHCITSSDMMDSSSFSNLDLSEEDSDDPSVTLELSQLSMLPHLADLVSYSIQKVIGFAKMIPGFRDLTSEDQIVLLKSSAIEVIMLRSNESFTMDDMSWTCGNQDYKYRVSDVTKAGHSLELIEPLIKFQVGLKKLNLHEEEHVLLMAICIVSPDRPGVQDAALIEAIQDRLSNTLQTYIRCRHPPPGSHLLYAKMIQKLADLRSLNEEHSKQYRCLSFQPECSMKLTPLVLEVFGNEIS
T1 sequence (P19793 1-462 partner): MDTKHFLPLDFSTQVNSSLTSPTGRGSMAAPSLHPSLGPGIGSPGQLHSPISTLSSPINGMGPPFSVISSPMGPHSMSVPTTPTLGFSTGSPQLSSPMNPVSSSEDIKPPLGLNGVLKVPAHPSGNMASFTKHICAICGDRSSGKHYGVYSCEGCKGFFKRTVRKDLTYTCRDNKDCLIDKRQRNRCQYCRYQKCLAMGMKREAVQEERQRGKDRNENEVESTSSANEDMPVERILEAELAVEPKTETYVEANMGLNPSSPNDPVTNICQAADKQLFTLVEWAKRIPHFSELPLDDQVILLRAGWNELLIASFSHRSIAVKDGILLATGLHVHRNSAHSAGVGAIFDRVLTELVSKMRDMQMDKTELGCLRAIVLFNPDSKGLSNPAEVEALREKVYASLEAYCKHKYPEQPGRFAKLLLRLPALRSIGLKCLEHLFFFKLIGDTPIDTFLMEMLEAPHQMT
Kind of series: Evaluation of VDR transcription activity in human osteoblasts (HOS cells), luciferase reporter. The settings on record: HOS cells transfected with human VDR, human RXRα and DR3 luciferase reporter, 21 hours.

Setting [2] is: Activity (EC50, VDR transcription activity).

For `C[C@H](CN1CCC(O)(C(F)(F)F)C1)[C@H]1CC[C@H]2/C(=C/C=C3C[C@@H](O)C[C@H](O)C3)CCC[C@]12C` (single isomer, unassigned) [Compound B045b], in series [1], the “Concentration in brain/in blood ratio at brain Cmax” value was found to be 0.25, the “Concentration in blood (mean ± SD) at brain Cmax” value is given as 444 ± 113 nM and the “Concentration in brain (mean ± SD) at brain Cmax” value was determined as 109 ± 22 pmol/g. At human VDR (read-out: Activity (EC50, VDR transcription activity)), the EC50 was below 1 nM.

Regarding `C=C1[C@H](O)CC(=C/C=C2\CCC[C@]3(C)[C@@H]([C@@H](C)CN4CCC(C(F)F)CC4)CC[C@@H]23)C[C@H]1O` [Compound C019], in series [1], the “Concentration in blood (mean ± SD) at brain Cmax” value was 335 ± 85 nM, the “Concentration in brain (mean ± SD) at brain Cmax” value is given as 614 ± 153 pmol/g and the Kp worked out at 1.83. Moreover, the EC50 on human VDR (setting [2]) was in the range of 1 to 10 nM.

In the case of `C=C1/C(=C\C=C2/CCC[C@]3(C)[C@@H]([C@@H](C)CN4CCC(O)(C(F)(F)F)CC4)CC[C@@H]23)C[C@@H](O)[C@H](C)[C@@H]1O` [Compound C006], in series [1], the “Concentration in blood (mean ± SD) at brain Cmax” value turned out to be 510 ± 55 nM, the “Concentration in brain (mean ± SD) at brain Cmax” value is recorded as 239 ± 23 pmol/g and the Kp was determined as 0.47. The half-maximal effective concentration (EC50) at human VDR (setting [2]) was below 1 nM.

With `C[C@H](CN1CCC(O)(C(F)(F)F)CC1)[C@H]1CC[C@H]2/C(=C/C=C3C[C@@H](O)C[C@H](O)C3)CCC[C@]12C` [Compound C002, (1R,3R)-5-(2-((1R,3aS,7aR,E)-1-((S)-1-(4-hydroxy-4-(trifluoromethyl)piperidin-1-yl)propan-2-yl)-7a-methyloctahydro-4H-inden-4-ylidene)ethylidene)cyclohexane-1,3-diol], in series [1], the “Concentration in blood (mean ± SD) at brain Cmax” value amounted to 402 ± 38 nM, the “Concentration in brain (mean ± SD) at brain Cmax” value is reported as 156 ± 14 pmol/g and the Kp came out at 0.39. At human VDR (setting [2]), this compound returned an EC50 of 10 to 100 nM.

Regarding `C[C@H](CN1CCC(O)(C(F)(F)F)C1)[C@H]1CC[C@H]2/C(=C/C=C3C[C@@H](O)C[C@H](O)C3)CCC[C@]12C` (single isomer, unassigned) [Compound B045a], in series [1], the “Concentration in blood (mean ± SD) at brain Cmax” value came out at 530 ± 97 nM, the “Concentration in brain (mean ± SD) at brain Cmax” value turned out to be 185 ± 116 pmol/g and the Kp was determined as 0.35. Also, the EC50 on human VDR (setting [2]) was below 1 nM.

For `C=C1[C@H](O)CC(=C/C=C2\CCC[C@]3(C)[C@@H]([C@H](C)CN4CCC(CC(F)F)CC4)CC[C@@H]23)C[C@H]1O` [Compound C059, (1R,3R)-5-(2-((1R,3aS,7aR,E)-1-((S)-1-(4-(2,2-difluoroethyl)piperidin-1-yl)propan-2-yl)-7a-methyloctahydro-4H-inden-4-ylidene)ethylidene)-2-methylenecyclohexane-1,3-diol], in series [1], the “Concentration in blood (mean ± SD) at brain Cmax” value turned out to be 167 ± 29 nM, the “Concentration in brain (mean ± SD) at brain Cmax” value is given as 241 ± 21 pmol/g and the Kp stood at 1.44. Besides, the concentration giving a half-maximal response (EC50) at human VDR (setting [2]) fell in the range of 10 to 100 nM.

Regarding `C[C@H](CN1CCC[C@](C)(O)C1)[C@H]1CC[C@H]2/C(=C/C=C3C[C@@H](O)C[C@H](O)C3)CCC[C@]12C` [Compound C039, (1R,3R)-5-(2-((1R,3aS,7aR,E)-1-((S)-1-((S)-3-hydroxy-3-methylpiperidin-1-yl)propan-2-yl)-7a-methyloctahydro-4H-inden-4-ylidene)ethylidene)cyclohexane-1,3-diol], in series [1], the “Concentration in blood (mean ± SD) at brain Cmax” value was determined as 132 ± 15 nM, the “Concentration in brain (mean ± SD) at brain Cmax” value was determined as 101 ± 8 pmol/g and the Kp stood at 0.77. Besides, on human VDR (setting [2]), the EC50 lay in the range of 1 to 10 nM.

Consider `C=C1[C@H](O)CC(=C/C=C2\CCC[C@]3(C)[C@@H]([C@H](C)CCN4CCO[C@@H](C(F)F)C4)CC[C@@H]23)C[C@H]1O` [Compound D036, (1R,3R)-5-(2-((1R,3aS,7aR,E)-1-((R)-4-((R)-2-(difluoromethyl)morpholino)butan-2-yl)-7a-methyloctahydro-4H-inden-4-ylidene)ethylidene)-2-methylenecyclohexane-1,3-diol], for which the EC50 on human VDR (setting [2]) was in the range of 1 to 10 nM.

For the compound `C[C@H](CN1CCC[C@H](CC(F)F)C1)[C@H]1CC[C@H]2/C(=C/C=C3C[C@@H](O)C[C@H](O)C3)CCC[C@]12C` [Compound C051, (1R,3R)-5-(2-((1R,3aS,7aR,E)-1-((S)-1-((R)-3-(2,2-difluoroethyl)piperidin-1-yl)propan-2-yl)-7a-methyloctahydro-4H-inden-4-ylidene)ethylidene)cyclohexane-1,3-diol], on human VDR (setting [2]), the EC50 lay within 100 to 1000 nM.

Take `C=C1[C@H](O)CC(=C/C=C2\CCC[C@]3(C)[C@@H]([C@H](C)CCN4CC(OC(F)F)C4)CC[C@@H]23)C[C@H]1O` [Compound A030, (1R,3R)-5-(2-((1R,3aS,7aR,E)-1-((R)-4-(3-(difluoromethoxy)azetidin-1-yl)butan-2-yl)-7a-methyloctahydro-4H-inden-4-ylidene)ethylidene)-2-methylenecyclohexane-1,3-diol]: the EC50 at human VDR (setting [2]) was 10 to 100 nM.

In the case of `C[C@@H](CN1CC[C@@H](C(C)(F)F)C1)[C@H]1CC[C@H]2/C(=C/C=C3CC(O)C[C@H](O)C3)CCC[C@]12C` (stereo in doubt) [Compound B102, (1R,3S)-5-(2-((1R,3aS,7aR,E)-1-((R)-1-((R)-3-(1,1-difluoroethyl)pyrrolidin-1-yl)propan-2-yl)-7a-methyloctahydro-4H-inden-4-ylidene)ethylidene)cyclohexane-1,3-diol], the EC50 at human VDR (setting [2]) is 1 to 10 nM.

As for `C[C@@H](CN1CCC(C(F)F)CC1)[C@H]1CC[C@H]2/C(=C/C=C3C[C@@H](O)C[C@H](O)C3)CCC[C@]12C` [Compound C018, (1R,3R)-5-(2-((1R,3aS,7aR,E)-1-((R)-1-(4-(difluoromethyl)piperidin-1-yl)propan-2-yl)-7a-methyloctahydro-4H-inden-4-ylidene)ethylidene)cyclohexane-1,3-diol], the EC50 at human VDR (setting [2]) was 10 to 100 nM.

`C=C1[C@H](O)CC(=C/C=C2\CCC[C@]3(C)[C@@H]([C@H](C)CN4CCO[C@@H](C)C4)CC[C@@H]23)C[C@H]1O` [Compound D010, (1R,3R)-5-(2-((1R,3aS,7aR,E)-7a-methyl-1-((S)-1-((S)-2-methylmorpholino)propan-2-yl)-octahydro-4H-inden-4-ylidene)ethylidene)-2-methylene-cyclohexane-1,3-diol] registered an EC50 at human VDR (setting [2]) of 1 to 10 nM.

For the compound `C[C@H](CCN1CC[C@@H](OC(F)F)C1)[C@H]1CC[C@H]2/C(=C/C=C3C[C@@H](O)C[C@H](O)C3)CCC[C@]12C` [Compound B087, (1R,3R)-5-(2-((1R,3aS,7aR,E)-1-((R)-4-((R)-3-(difluoromethoxy)pyrrolidin-1-yl)butan-2-yl)-7a-methyloctahydro-4H-inden-4-ylidene)ethylidene)cyclohexane-1,3-diol], at human VDR (setting [2]), the concentration giving a half-maximal response (EC50) fell in the range of 100 to 1000 nM.

At human VDR (setting [2]), `C=C1[C@H](O)CC(=C/C=C2\CCC[C@]3(C)[C@@H]([C@H](C)CCN4CC(O)(C(F)(F)F)C4)CC[C@@H]23)C[C@H]1O` [Compound A023, (1R,3R)-5-(2-((1R,3aS,7aR,E)-1-((R)-4-(3-hydroxy-3-(trifluoromethyl)azetidin-1-yl)butan-2-yl)-7a-methyloctahydro-4H-inden-4-ylidene)ethylidene)-2-methylenecyclohexane-1,3-diol] displayed a concentration giving a half-maximal response (EC50) below 1 nM.

In general, EC50 refers to the concentration giving half of the maximal effect.
